According to patent publication US10160705B2, “Class of HDAC inhibitors expands the renal progenitor cells population and improves the rate of recovery from acute kidney injury” (University of Pittsburgh—Of the Commonwealth System of …, priority 2011, dated 2018):
Read-outs that look alike come from different tables or passages of the source.

Experiments:
zebrafish embryos = test: Phenotypic screen for edema and survival in zebrafish larvae at 72 hpf; conditions: for Dead / Edemic 1 (E1) / Edemic 2 (E2) / Edemic 3 (E3) / Wild-type (WT): number of larvae (of 36), 3 μM from 2 hpf, scored at 72 hpf; for effect on zebrafish embryos in the phenotypic screen: 3 μM
Experimental: The screen was performed in zebrafish embryos using the National Cancer Institute's Developmental Therapeutics Program (NCI/DTP) Diversity Set I. This library contains 1990 compounds selected by pharmacophore modeling to represent the more than 140,000 small molecules maintained in the NCI/DTP Open Repository. Compounds from the NCI/DTP Diversity Set I were diluted to 10 μM in E3 embryo medium (5 mM NaCl, 0.33 mM CaCl2, 0.33 mM MgSO4, and 0.17 mM KCl) in a final DMSO concentration of 0.5% and arrayed in 96-well plates. Beginning at approximately 2 hpf, embryos were transferred to each well in groups of five using a glass pipette. The plates were incubated at 28.5° C. for 70 hours. Individual wells were then scored for a dominant phenotype, representative of at least four of the five embryos. The primary objective was to identify compounds that caused edema in treated embryos at 72 hpf. Small molecules generating edema were retested once for verification, before obtaining additional compound from the NCI/DTP Open Repository.
PTBA was synthesized as described below. Hydroxyurea and aphidicolin were obtained from Sigma-Aldrich. Groups of 20 to 30 chorionated 2 hpf embryos were arrayed in individual wells of 12-well plates. E3 medium was removed with a glass pipette and replaced with 1.5 ml treatment solutions containing 0.5% DMSO in E3 with or without compound at the reported concentrations. Treatments for all studies were initiated at 2 hpf, except for the temporal studies (FIG. 6) and the HUA studies (FIG. 11). HUA studies were performed as described previously (Zhang, L., et al. Cell cycle progression is required for zebrafish somite morphogenesis but not segmentation clock function. Development 135, 2065-2070, (2008)), with the following modifications. HUA in 0.5% DMSO was added at early gastrulation (5 hpf) and PTBA was subsequently added at late gastrulation (8 hpf) to allow for penetration of the proliferation inhibitors. All embryos were incubated at 28.5° C. until the required developmental stage.
Following 70 hours of treatment (as described above), edemic phenotypes in 72 hpf larvae were scored using a phenotype-based classification system. Wild type: no visible edema or developmental delay. […] Significant effects (p<0.05) on survival were determined by two-tailed Fisher's exact test in comparison with the 0 μM PTBA treatment group.
PTBA and methyl-4-(phenylthio)butanoate were synthesized as described above. 4-(Naphthalen-2-ylthio)butanoic acid (NSC2733) and 3-(phenylthio)benzoic acid (NSC113994), were obtained from the NCI/DTP Open Repository. APHA compound 8, Apicidin, butanoic acid, PBA, 4-phenoxybutanoic acid, 5-phenylpentanoic acid, Scriptaid, TSA, and valproic acid were obtained from Sigma-Aldrich. MS-275 and SAHA were obtained from Cayman Chemical Co. 4-(phenylsulfonyl)butanoic acid was obtained from Matrix Scientific. Tubacin was a gift of Dr. Ralph Mazitschek of the Broad Institute (Cambridge, Mass.). The remaining PTBA analogs were synthesized. Three independent groups of 12 chorionated 2 hpf embryos were arrayed in individual wells of 24-well plates. E3 medium was removed with a glass pipette and replaced with 800 μl treatment solutions containing 0.5% DMSO in E3 with or without compound at the reported concentrations.
Phenotypic screening of PTBA analogs was performed identically to the concentration-response experiments detailed above. Embryos were treated with each PTBA analog from 2 to 72 hpf as described above.

renal progenitor cells = test: In situ hybridization for lhx1a expression in 10-somite embryos (renal progenitor cell expansion); type: in vivo; conditions: for Lhx1a expansion caused by analog treatment, 200 nM: 200 nM from 2 hpf; for Lhx1a expansion caused by analog treatment, 400 nM: 400 nM from 2 hpf; for responders at 1.5 µM / responders at 0.2 µM / responders at 3 µM / responders at 0.4 µM / responders at 0.8 µM / EC50: Danio rerio; for EC50: first pass EC50 from percent expansion (Excel trendline), average where several experiments
Experimental: PTBA was synthesized as described below. Hydroxyurea and aphidicolin were obtained from Sigma-Aldrich.
In situ hybridization and immunocytochemistry: In situ hybridization was performed as previously described with some modifications.142 Hybridization temperature was 65° C. Embryos were blocked in 2% blocking reagent (Roche) with 5% sheep serum in MAB (100 mM maleic acid and 150 mM NaCl [pH 7.5]). Whole-mount immunocytochemistry with 1:25 mouse anti-α6F antibody (Developmental Studies Hybridoma Bank) and 1:100 Cy3 secondary antibody (Jackson ImmunoResearch) was performed as described previously.108 Embryos were embedded in JB-4 for sectioning per the manufacturer's instructions (Polysciences), sectioned at 5 μm, and mounted with Cytoseal 60 (Richard-Allan Scientific).
The remaining PTBA analogs were synthesized.
In situ hybridization for lhx1a was performed as described above. […] Compounds were classified as effective, partially-effective or ineffective based on comparison to the effects of PTBA at a given concentration.
Testing of the compounds is on-going, but for those tested, Table 6 provides first pass EC50s based upon colormetric in situ hybridizations for the Lhx1a mRNA expression levels. After the procedure is run, in situ hybridization is done for the lhx1 mRNA expression and the number of embryos that show an expanded kidney field is manually counted to establish the percent of embryos showing expansion. Then the EC50 is determined by plotting the percent expansion in Excel, graphing the results and using the trendline function to determine the 50 percent point.

[1] = 3 μM from 2 hpf, 10-somite embryos
[2] = 800 nM from 2 hpf, 10-somite embryos
[3] = 1.5 μM from 2 hpf, 10-somite embryos
[4] = 1.5 μM from 2 hpf, 10-somite embryos, read-out: lhx1a expansion, percent of treated embryos
[5] = percent of embryos with expanded kidney field, 200 nM, read-out: Expansion of Cells (including repeats* and recounts**) 200 nM
[6] = percent of embryos with expanded kidney field, 1.5 μM, read-out: Expansion of Cells (including repeats* and recounts**) 1.5 μM
[7] = percent of embryos with expanded kidney field, 3 μM, read-out: Expansion of Cells (including repeats* and recounts**) 3 μM
[8] = read-out: lhx1a expansion, percent of treated embryos, 400 nM from 2 hpf, 10-somite embryos
[9] = read-out: lhx1a expansion, percent of treated embryos, 800 nM from 2 hpf, 10-somite embryos
[10] = 3 μM from 2 hpf, 10-somite embryos, read-out: lhx1a expansion, percent of treated embryos

Structure (SMILES) | Dead (zebrafish embryos) | Edemic 1 (E1) (zebrafish embryos) | Edemic 2 (E2) (zebrafish embryos) | Edemic 3 (E3) (zebrafish embryos) | Wild-type (WT) (zebrafish embryos) | Lhx1a expansion caused by analog treatment, 3 μM (renal progenitor cells; [1]) | Lhx1a expansion caused by analog treatment, 800 nM (renal progenitor cells; [2]) | Lhx1a expansion caused by analog treatment, 1.5 μM (renal progenitor cells; [3]) | responders at 1.5 µM (renal progenitor cells; [4]) | responders at 1.5 µM (renal progenitor cells; [6]) | further results
CCCC(=O)O [butanoic acid, reference compound] | 1 | 0 | 0 | 0 | 35 | − |  |  |  |  | 
O=C(CCCSc1ccc(F)cc1)NO [UPHD-00029, 4-[(4-fluoro-phenyl)sulfanyl]-N-hydroxybutanamide] | 28 | 0 | 0 | 8 | 0 | + | + | + | 100% | 100% | Lhx1a expansion caused by analog treatment, 200 nM (renal progenitor cells; 10-somite embryos): −; Lhx1a expansion caused by analog treatment, 400 nM (renal progenitor cells; 10-somite embryos): +/−; responders at 0.2 µM (renal progenitor cells; [5]): 6%; responders at 3 µM (renal progenitor cells; [7]): 100%; responders at 0.4 µM (renal progenitor cells; [8]): 35%; responders at 0.8 µM (renal progenitor cells; [9]): 60%; EC50 (renal progenitor cells): 1310 nM
Nc1ccccc1NC(=O)c1ccc(CNC(=O)OCc2cccnc2)cc1 [MS-275, reference compound] | 0 | 0 | 0 | 0 | 36 | − |  |  |  |  | effect on zebrafish embryos in the phenotypic screen (zebrafish embryos): no effect
O=C(O)CCCSc1ccc2ccccc2c1 [4-(naphthalen-2-ylthio)butanoic acid, 4-(Naphthalen-2-ylthio)butanoic acid, reference compound] | 2 | 9 | 0 | 0 | 25 | − |  |  |  |  | lhx1a expansion, percent of treated embryos (renal progenitor cells; 3 μM from 2 hpf, 10-somite embryos, listed as 4-(napthalen-2-ylthio)butanoic acid): no expansion; responders at 3 µM (renal progenitor cells; [10]): 33%
O=C(CCCSc1ccccc1)NO [UPHD-00023, N-hydroxy- 4(phenyl- sulfanyl)butanamide] | 0 | 3 | 20 | 13 | 0 | + | +/− | + | 92% | 92% | responders at 0.2 µM (renal progenitor cells; [5]): 0%; responders at 0.4 µM (renal progenitor cells; percent of embryos with expanded kidney field, 400 nM, read-out: Expansion of Cells (including repeats* and recounts**) 400 nM): 6%; responders at 3 µM (renal progenitor cells; [7]): 100%; EC50 (renal progenitor cells): 1300 nM
O=C(CCCSc1ccc(Cl)cc1)NO [UPHD-00027, 4-[(4-chloro-phenyl)sulfanyl]-N-hydroxybutanamide] | 14 | 0 | 0 | 22 | 0 | + | +/− | + | 97% | 97% | responders at 0.8 µM (renal progenitor cells; percent of embryos with expanded kidney field, 800 nM, read-out: Expansion of Cells (including repeats* and recounts**) 800 nM): 17%; responders at 3 µM (renal progenitor cells; [7]): 94%
COc1ccc(SCCCC(=O)NO)cc1 [VNK-I-289, 4-[(4-methoxy-phenyl)sulfanyl]-N-hydroxybutanamide] | 0 | 20 | 0 | 0 | 16 | +/− |  |  |  |  | responders at 3 µM (renal progenitor cells; [10]): 31%
O=C(CCCCCCC(=O)Nc1ccccc1)NO [SAHA, reference compound] | 0 | 0 | 0 | 0 | 36 | − |  |  |  |  | effect on zebrafish embryos in the phenotypic screen (zebrafish embryos): no effect
CCC(C)OC(=O)CCCSc1ccccc1 (stereo not drawn) [VNK-I-154] | 1 | 19 | 12 | 2 | 2 | + | +/− | + | 89% |  | 
Cn1cc(C(=O)Cc2ccccc2)cc1/C=C/C(=O)NO [APHA compound 8, reference compound] | 0 | 0 | 0 | 0 | 36 | − |  |  |  |  | 
O=C(CCCSc1ccc(Br)cc1)NO [VNK-I-292, 4-[(4-bromo-phenyl)sulfanyl]-N-hydroxybutanamide] | 0 | 23 | 12 | 0 | 1 | + |  | +/− | 47% |  | 
CCCC(CCC)C(=O)O [valproic acid, reference compound] | 0 | 11 | 0 | 0 | 25 | +/− |  |  |  |  | responders at 3 µM (renal progenitor cells; [10]): 20%
COC(=O)CCCSc1ccc(F)cc1 [UPHD-00030, methyl 4-[(4-fluoro-phenyl)sulfanyl]butanoate] | 36 | 0 | 0 | 0 | 0 |  | + | + | 100% | 100% | Lhx1a expansion caused by analog treatment, 200 nM (renal progenitor cells; 10-somite embryos): +/−; Lhx1a expansion caused by analog treatment, 400 nM (renal progenitor cells; 10-somite embryos): +/−; lhx1a expansion, percent of treated embryos (renal progenitor cells; [2]): 64%; lethality before the 10-somite stage (renal progenitor cells; 3 μM): killed all treated embryos; responders at 0.2 µM (renal progenitor cells; read-out: lhx1a expansion, percent of treated embryos, 200 nM from 2 hpf, 10-somite embryos): 22%; responders at 0.4 µM (renal progenitor cells; [8]): 26%; responders at 0.8 µM (renal progenitor cells; [9]): 64%; EC50 (renal progenitor cells): 485 nM; Expansion of Cells (including repeats* and recounts**) 3 μM (renal progenitor cells; percent of embryos with expanded kidney field, 3 μM): All dead
